Columns and labels:
human EphB4 [1] = target: T1, human EphB4 (Homo sapiens, UniProt P54760); assay: in vitro enzymatic kinase assay EphB4 (ADP Hunter assay kit); assay type: biochemical; conditions: cell-free; ATP 300uM; poly (Glu4-Tyr) 800uM
T1 sequence (P54760 16-987): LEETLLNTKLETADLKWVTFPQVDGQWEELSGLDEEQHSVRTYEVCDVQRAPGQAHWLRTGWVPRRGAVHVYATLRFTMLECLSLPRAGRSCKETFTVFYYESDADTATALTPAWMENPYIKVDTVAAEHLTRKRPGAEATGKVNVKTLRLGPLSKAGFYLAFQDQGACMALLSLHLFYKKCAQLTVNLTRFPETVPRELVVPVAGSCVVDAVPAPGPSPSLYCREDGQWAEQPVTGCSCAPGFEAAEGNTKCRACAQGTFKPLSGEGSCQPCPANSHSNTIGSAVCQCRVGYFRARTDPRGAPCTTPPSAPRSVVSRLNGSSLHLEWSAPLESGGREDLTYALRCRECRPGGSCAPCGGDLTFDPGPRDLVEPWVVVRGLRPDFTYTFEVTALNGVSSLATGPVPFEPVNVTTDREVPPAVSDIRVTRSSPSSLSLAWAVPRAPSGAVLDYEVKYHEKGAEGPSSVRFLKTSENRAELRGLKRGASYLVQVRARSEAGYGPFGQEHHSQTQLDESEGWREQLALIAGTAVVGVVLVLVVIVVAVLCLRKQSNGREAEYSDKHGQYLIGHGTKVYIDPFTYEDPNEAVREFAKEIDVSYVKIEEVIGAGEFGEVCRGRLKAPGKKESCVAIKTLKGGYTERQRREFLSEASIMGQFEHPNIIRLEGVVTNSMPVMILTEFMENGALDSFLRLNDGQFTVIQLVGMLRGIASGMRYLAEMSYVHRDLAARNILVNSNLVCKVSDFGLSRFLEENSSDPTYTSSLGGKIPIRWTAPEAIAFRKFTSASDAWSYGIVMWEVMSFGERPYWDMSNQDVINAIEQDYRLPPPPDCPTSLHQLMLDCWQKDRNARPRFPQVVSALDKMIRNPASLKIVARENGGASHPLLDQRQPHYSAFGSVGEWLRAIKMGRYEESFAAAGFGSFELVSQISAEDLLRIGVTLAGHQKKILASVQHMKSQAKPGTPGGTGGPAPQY
Method: EphB4 inhibition activity of compounds was measured in an in vitro enzymatic kinase assay using the ADP Hunter assay kit (DiscoveRx Corp.), which measures accumulation of ADP produced by the kinase enzyme activity. EphB4 kinase (2ug/mL) is preincubated with different concentrations of compounds for 15 minutes at room temperature in kinase buffer (HEPES 15mM, MgCl2 10mM, EDTA 0.5mM, NaCl 20mM, Tween-20 0.02%, pH 7.4). ATP (300uM) is added and the mixture is incubated for 30 minutes at room temperature for enzyme activation. The peptide substrate poly (Glu4-Tyr) 800uM is added and the mixture is incubated for 60 minutes at 30°C. An enzyme- coupled reaction produces a red-shifted fluorescent signal that is directly proportional to the amount of ADP in solution. Fluorescence emission is measured at 590nm with excitation at 535nm.

human EphB4 [2] = target: T1, human EphB4; assay: Cellular autophosphorylation assay EphB4 (ELISA) in CHO-EphB4 cells; assay type: cell-based; parameters: stably transfected with myc-tagged full length human EphB4; expressed in transfected cells; host or cells: CHO (chinese hamster ovary); conditions: ephrinB2/Fc induced autophosphorylation
Method: CHO (chinese hamster ovary) cells were stably transfected with myc-tagged full length human EphB4. A cell line expressing EphB4 of which the phosphorylation was inducible with ephrinB2/Fc was identified and called CHO-EphB4. CHO-EphB4 cells were seeded into 96-well plates and cultured overnight in HAM-F12 medium supplemented with 10% fetal calf serum (FCS). Cells were washed once with PBS and different concentrations of compounds in HAM-F12 medium (final concentration of DMSO in the assay was 1%) were added. Cells were incubated at 37°C for 15 minutes. Ligand ephrinB2/Fc (R&D Systems, 1ug/mL final), which had been pre-clustered with anti-IgG Fc antibody (Jackson ImmunoResearch) for 45 minutes at room temperature, was added and cells were further incubated at 37°C for 45 minutes. Cells were lysed in 30uL lysis buffer per well (20mM Tris pH8, 150mM NaCl, 10% glycerol, 1% Triton X-100, 1mM Na3VO4, 1mM EDTA pH8, 1mM EGTA pH8, 1x protease inhibitor cocktail Sigma). ELISA 96-well plates (Nunc, Maxisorp) were coated with 100uL/well anti-c-myc antibody (Sigma) overnight at 4°C, blocked with 300uL/well 5% milk in TBS/0.005% Tween 20 (TBST) for 1 to 3 hours at room temperature, and incubated with 25uL/well cell lysate overnight at 4°C. ELISA plates were washed twice with TBST and incubated with 100uL/well antiphosphotyrosine HRP-coupled antibody (Upstate) diluted 1:1000 in 5% milk in TBST for 1.5 hour at room temperature and developed with 100uL/well BM BluePOD substrate (Roche). Absorbance was measured at 450nm.

c-Met = target: T2, c-Met (Homo sapiens, UniProt P08581); assay: yeast growth assay, specificity profiling, c-Met; assay type: cell-based; conditions: Table Y; legend not given
T2 construct: expressed in transfected cells; host or cells: yeast
Method: (§1) The yeast growth assay was performed as described in "Method for the identification and/or validation of receptor tyrosine kinase inhibitors" WO2005/040413, section "Modes for Carrying out the Invention", Experiment 1 and Experiment 2: Yeast cells carrying plasmids with the RTK of interest were grown in glucose containing medium (repressing expression). Cultures were diluted into galactose containing medium, which induces expression of the kinase. Expression of the kinase inhibits growth of the yeast cells, which allows for positive selection of kinase inhibitors restoring growth of cells.

VEGFR-1 = target: T3, VEGFR-1 (Homo sapiens, UniProt P17948); assay: yeast growth assay, specificity profiling, VEGFR-1; assay type: cell-based; conditions: Table Y; legend not given
T3 construct: expressed in transfected cells; host or cells: yeast
Method: as §1

VEGFR-2 = target: T4, VEGFR-2 (Homo sapiens, UniProt P35968); assay: yeast growth assay, specificity profiling, VEGFR-2; assay type: cell-based; conditions: Table Y; legend not given
T4 construct: expressed in transfected cells; host or cells: yeast
Method: as §1

IGF1R = target: T5, IGF1R (Homo sapiens, UniProt P08069); assay: yeast growth assay, specificity profiling, IGF1R; assay type: cell-based; conditions: Table Y; legend not given
T5 construct: expressed in transfected cells; host or cells: yeast
Method: as §1

InsR = target: T6, InsR (Homo sapiens, UniProt P06213); assay: yeast growth assay, specificity profiling, InsR; assay type: cell-based; conditions: Table Y; legend not given
T6 construct: expressed in transfected cells; host or cells: yeast
Method: as §1

PDGFRb = target: T7, PDGFRb (Homo sapiens, UniProt P09619); assay: yeast growth assay, specificity profiling, PDGFRb; assay type: cell-based; conditions: Table Y; legend not given
T7 construct: expressed in transfected cells; host or cells: yeast
Method: as §1

EGFR = target: T8, EGFR (Homo sapiens, UniProt P00533); assay: yeast growth assay, specificity profiling, EGFR; assay type: cell-based; conditions: Table Y; legend not given
T8 construct: expressed in transfected cells; host or cells: yeast
Method: as §1

ErbB2 = target: T9, ErbB2 (Homo sapiens, UniProt P04626); assay: yeast growth assay, specificity profiling, ErbB2; assay type: cell-based; conditions: Table Y; legend not given
T9 construct: expressed in transfected cells; host or cells: yeast
Method: as §1

T3 sequence (P17948 27-1338): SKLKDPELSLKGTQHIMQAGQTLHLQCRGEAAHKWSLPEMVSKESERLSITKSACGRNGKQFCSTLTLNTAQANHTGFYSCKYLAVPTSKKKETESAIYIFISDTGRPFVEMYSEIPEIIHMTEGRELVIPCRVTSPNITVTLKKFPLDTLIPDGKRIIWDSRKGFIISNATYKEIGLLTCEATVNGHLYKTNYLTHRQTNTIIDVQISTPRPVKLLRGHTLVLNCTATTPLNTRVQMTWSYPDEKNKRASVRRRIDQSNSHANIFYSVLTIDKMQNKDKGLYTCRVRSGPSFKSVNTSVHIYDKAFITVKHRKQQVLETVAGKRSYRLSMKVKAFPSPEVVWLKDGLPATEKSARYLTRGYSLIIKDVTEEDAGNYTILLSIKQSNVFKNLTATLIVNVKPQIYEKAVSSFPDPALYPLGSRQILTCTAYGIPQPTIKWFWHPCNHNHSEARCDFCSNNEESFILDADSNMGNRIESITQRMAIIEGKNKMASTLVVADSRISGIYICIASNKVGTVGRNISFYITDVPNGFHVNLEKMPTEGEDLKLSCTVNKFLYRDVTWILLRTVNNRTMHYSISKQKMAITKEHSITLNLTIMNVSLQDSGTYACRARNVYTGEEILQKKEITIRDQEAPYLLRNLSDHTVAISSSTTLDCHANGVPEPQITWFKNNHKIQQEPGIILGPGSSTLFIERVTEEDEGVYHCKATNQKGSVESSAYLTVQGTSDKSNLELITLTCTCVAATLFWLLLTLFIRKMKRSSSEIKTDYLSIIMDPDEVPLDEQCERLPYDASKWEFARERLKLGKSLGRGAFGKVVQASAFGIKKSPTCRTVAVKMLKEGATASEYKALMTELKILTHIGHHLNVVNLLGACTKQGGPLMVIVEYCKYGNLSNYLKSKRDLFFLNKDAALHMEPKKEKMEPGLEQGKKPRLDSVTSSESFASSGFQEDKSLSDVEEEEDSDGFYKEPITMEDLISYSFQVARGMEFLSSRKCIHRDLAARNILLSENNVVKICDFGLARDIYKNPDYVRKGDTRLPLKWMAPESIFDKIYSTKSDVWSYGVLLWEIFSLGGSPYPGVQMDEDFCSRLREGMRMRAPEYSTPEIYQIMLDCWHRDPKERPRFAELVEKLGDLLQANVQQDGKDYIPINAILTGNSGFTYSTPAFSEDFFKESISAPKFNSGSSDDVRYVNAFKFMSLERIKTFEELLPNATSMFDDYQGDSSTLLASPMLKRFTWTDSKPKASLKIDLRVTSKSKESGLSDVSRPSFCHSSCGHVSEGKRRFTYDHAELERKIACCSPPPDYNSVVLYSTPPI
T4 sequence (P35968 20-1356): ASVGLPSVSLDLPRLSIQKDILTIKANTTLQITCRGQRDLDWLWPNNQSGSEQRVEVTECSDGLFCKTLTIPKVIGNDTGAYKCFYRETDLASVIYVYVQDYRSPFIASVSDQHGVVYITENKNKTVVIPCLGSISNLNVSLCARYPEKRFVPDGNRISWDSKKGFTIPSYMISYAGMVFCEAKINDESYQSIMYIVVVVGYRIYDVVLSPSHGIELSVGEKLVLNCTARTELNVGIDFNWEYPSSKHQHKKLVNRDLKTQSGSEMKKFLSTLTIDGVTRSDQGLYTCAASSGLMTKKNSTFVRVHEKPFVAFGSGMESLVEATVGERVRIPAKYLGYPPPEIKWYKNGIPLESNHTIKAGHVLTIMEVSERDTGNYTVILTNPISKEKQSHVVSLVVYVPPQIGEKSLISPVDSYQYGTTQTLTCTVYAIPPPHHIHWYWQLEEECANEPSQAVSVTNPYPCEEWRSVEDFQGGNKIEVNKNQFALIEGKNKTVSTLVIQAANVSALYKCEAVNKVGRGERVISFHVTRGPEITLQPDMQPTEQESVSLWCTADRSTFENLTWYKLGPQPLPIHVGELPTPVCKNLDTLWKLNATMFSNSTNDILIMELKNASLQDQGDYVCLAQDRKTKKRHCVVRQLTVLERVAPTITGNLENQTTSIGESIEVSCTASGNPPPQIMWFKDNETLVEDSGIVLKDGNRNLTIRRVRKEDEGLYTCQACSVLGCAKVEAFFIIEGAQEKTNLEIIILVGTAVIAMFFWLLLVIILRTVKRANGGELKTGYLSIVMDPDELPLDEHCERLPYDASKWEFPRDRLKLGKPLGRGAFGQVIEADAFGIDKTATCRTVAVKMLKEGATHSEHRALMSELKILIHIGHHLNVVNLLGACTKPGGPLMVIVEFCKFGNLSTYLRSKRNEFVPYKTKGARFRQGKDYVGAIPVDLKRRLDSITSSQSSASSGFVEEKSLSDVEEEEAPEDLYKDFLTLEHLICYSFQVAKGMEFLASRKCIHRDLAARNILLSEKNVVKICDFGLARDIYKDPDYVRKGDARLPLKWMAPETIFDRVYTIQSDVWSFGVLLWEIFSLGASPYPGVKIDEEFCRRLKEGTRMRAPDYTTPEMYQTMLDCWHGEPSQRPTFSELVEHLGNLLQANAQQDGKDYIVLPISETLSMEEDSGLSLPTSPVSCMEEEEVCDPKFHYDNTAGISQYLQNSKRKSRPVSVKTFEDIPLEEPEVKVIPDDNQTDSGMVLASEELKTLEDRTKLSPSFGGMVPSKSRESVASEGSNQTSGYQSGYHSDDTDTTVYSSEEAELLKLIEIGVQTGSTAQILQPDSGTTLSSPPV
T7 sequence (P09619 33-1106): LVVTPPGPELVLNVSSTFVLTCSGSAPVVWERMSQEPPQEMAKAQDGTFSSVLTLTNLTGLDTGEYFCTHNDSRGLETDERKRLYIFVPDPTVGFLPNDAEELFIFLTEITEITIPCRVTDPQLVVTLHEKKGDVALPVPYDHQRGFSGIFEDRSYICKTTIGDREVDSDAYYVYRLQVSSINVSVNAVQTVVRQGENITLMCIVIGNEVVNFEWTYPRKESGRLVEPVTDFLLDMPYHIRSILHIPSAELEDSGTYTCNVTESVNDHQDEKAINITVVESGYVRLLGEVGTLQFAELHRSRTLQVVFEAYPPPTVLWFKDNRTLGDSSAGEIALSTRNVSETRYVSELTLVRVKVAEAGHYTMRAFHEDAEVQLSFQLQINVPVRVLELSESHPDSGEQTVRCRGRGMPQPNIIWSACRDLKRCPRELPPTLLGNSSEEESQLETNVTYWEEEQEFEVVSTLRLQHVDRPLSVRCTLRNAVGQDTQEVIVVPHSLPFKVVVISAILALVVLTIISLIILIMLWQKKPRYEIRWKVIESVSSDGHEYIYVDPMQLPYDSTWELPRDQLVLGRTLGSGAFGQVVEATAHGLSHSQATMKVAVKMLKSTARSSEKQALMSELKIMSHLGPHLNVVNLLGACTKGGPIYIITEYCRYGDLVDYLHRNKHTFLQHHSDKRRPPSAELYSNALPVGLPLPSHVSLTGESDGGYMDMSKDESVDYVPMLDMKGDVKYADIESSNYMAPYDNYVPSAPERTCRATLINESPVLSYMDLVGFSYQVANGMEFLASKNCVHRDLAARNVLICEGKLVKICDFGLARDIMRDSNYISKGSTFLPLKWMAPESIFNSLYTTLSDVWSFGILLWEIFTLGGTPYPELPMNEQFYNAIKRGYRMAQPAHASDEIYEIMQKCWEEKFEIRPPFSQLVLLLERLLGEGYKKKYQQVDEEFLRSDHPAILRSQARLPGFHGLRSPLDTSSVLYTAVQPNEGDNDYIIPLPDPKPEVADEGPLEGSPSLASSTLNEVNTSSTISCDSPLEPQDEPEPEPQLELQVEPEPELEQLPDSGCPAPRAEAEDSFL
T2 sequence (P08581 25-1390): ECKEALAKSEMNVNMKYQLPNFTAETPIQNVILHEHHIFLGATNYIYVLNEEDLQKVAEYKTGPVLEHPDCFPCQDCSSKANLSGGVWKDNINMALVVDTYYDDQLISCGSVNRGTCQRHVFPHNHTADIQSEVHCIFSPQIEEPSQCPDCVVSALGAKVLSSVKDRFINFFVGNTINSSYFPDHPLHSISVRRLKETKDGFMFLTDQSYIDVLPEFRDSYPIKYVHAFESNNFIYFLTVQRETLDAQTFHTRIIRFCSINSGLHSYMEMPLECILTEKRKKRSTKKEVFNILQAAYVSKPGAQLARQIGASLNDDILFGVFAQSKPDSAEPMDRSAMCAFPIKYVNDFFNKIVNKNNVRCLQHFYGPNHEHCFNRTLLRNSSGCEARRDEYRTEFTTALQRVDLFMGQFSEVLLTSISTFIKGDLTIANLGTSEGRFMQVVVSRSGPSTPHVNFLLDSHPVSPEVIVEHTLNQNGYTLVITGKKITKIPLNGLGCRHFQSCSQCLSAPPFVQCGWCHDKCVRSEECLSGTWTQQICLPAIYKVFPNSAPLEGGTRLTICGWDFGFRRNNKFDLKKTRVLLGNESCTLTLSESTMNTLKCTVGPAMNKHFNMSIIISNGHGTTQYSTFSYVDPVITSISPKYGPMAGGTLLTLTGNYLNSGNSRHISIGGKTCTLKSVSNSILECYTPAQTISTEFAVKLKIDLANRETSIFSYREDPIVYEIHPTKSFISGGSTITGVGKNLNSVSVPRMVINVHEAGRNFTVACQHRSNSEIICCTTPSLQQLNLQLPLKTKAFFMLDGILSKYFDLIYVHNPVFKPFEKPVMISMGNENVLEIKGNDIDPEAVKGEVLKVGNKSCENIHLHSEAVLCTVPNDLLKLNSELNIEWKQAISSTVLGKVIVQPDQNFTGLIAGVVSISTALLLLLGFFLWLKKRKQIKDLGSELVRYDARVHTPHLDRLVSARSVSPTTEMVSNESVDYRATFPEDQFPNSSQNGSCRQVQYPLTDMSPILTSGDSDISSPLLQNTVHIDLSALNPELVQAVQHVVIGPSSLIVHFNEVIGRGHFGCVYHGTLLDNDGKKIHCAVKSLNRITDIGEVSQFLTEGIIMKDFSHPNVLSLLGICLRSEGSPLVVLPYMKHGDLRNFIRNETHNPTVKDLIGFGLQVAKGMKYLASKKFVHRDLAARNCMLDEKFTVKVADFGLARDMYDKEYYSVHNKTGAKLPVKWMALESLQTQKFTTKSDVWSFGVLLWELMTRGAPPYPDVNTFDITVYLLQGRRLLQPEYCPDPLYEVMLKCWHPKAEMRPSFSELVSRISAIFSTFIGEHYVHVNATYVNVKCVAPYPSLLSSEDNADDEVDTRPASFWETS

IC50 (human EphB4 [1])	Compound	other results
1 to 10 µM	CNc1nc(Nc2ccc(C)cc2C)c2cnn(C)c2n1	–
1 to 10 µM	CCNc1nc(Nc2ccc(C)cc2C)c2cnn(C)c2n1	–
< 1 µM	CNc1nc(Nc2ccccc2C)c2cnn(C)c2n1	–
1 to 10 µM	CNc1nc(Nc2ccc(Cl)cc2C)c2cnn(C)c2n1 [drawing 56]	IC50 (human EphB4 [2]): > 10 µM
< 1 µM	COCCNc1nc(Nc2ccccc2C)c2cnn(C)c2n1	–
< 1 µM	COCCCNc1nc(Nc2ccccc2C)c2cnn(C)c2n1	–
< 1 µM	CCN(CC)CCNc1nc(Nc2ccccc2C)c2cnn(C)c2n1	–
< 1 µM	Cc1ccccc1Nc1nc(NC2CCCC2)nc2c1cnn2C	–
1 to 10 µM	Cc1ccccc1Nc1nc(NCc2ccccc2Cl)nc2c1cnn2C	IC50 (human EphB4 [2]): < 1 µM
< 1 µM	Cc1ccccc1Nc1nc(NCc2ccco2)nc2c1cnn2C	IC50 (human EphB4 [2]): 1 to 10 µM
1 to 10 µM	Cc1ccccc1Nc1nc(N2CCN(C(=O)c3ccco3)CC2)nc2c1cnn2C	–
1 to 10 µM	Cc1ccccc1Nc1nc(NCc2ccccc2)nc2c1cnn2C	–
1 to 10 µM	Cc1ccccc1Nc1nc(Nc2ccc(F)cc2)nc2c1cnn2C	–
1 to 10 µM	Cc1ccccc1Nc1nc(N2CCOCC2)nc2c1cnn2C	–
1 to 10 µM	Cc1ccccc1Nc1nc(N(C)C)nc2c1cnn2C	–
< 1 µM	CCCCNc1nc(Nc2ccccc2C)c2cnn(C)c2n1	IC50 (human EphB4 [2]): < 1 µM
< 1 µM	CCCNc1nc(Nc2ccccc2C)c2cnn(C)c2n1	–
–	CNc1nc(Nc2ccc(Cl)cc2C)c2cnn(C)c2n1 [[drawing]]	Specificity profiling in the yeast growth assay: c-Met (c-Met): 0; Specificity profiling in the yeast growth assay: VEGFR-1 (VEGFR-1): 0; Specificity profiling in the yeast growth assay: VEGFR-2 (VEGFR-2): 0; Specificity profiling in the yeast growth assay: IGF1R (IGF1R): 0; Specificity profiling in the yeast growth assay: InsR (InsR): 0; Specificity profiling in the yeast growth assay: PDGFRb (PDGFRb): 0; Specificity profiling in the yeast growth assay: EGFR (EGFR): 0; Specificity profiling in the yeast growth assay: ErbB2 (ErbB2): 0
1 to 10 µM	Cc1ccc(Nc2nc(NCc3ccco3)nc3c2cnn3C)c(C)c1	–
1 to 10 µM	Cc1ccccc1Nc1nc(N2CCCC2)nc2c1cnn2C	–
1 to 10 µM	Cc1ccccc1Nc1nc(Nc2ccccc2)nc2c1cnn2C	–
< 1 µM	C=CCNc1nc(Nc2ccccc2C)c2cnn(C)c2n1	–
< 1 µM	CCNc1nc(Nc2ccccc2C)c2cnn(C)c2n1	IC50 (human EphB4 [2]): < 1 µM
1 to 10 µM	Cc1cc(Cl)ccc1Nc1nc(NC2CCCC2)nc2c1cnn2C	IC50 (human EphB4 [2]): 1 to 10 µM
1 to 10 µM	CCCNc1nc(Nc2ccc(Cl)cc2C)c2cnn(C)c2n1	–

From patent EP2025678A1, “Pyrazolo[3,4-d]pyrimidine compounds and their use as modulators of protein kinase” (Oncalis AG, priority 2007, dated 2009)
